Data as given in patent US8617516B2, “Universal anchor peptide for nanoparticles” (Washington University, priority 2008, dated 2013).
Values joined by “and” are separate entries in the source; they are usually repeats but may differ in a detail not shown here. Equal entries are not always repeated.

Legend:
[1] = Surface plasmon resonance (Biacore X 100) binding of peptides on immobilized perfluorocarbon nanoparticles; settings: read-out: dissociation constant
Method: (§1) In order to evaluate whether linker peptide 1 (LP1) and linker peptide 2 (LP2) still retained high affinity on a lipid monolayer of the nanoparticles, surface plasmon resonance (SPR) studies were performed by using Biacore X 100 (Biacore Inc, Piscataway, N.J.). The binding kinetics and affinity of LP1 and LP2 on two type of nanoparticles were studied. One type was perfluorocarbon nanoparticles (e.g., perfluorooctylbromide, PFOB), the other type was oil-based (safflower core) nanoparticles. PBS (Ca^2+ and Mg^2+ free) was used as the running buffer. Nanoparticles were immobilized on Biacore sensor chip L1 by injecting nanoparticles at a flow rate of 1 μl/min for 30 minutes, followed by a running buffer wash at a flow rate of 100 μl/min for 50 seconds. Peptides in selected concentrations, prepared in running buffer, were then injected at a flow rate of 30 μl/min for 1 minute. At the end of each experiment, the sensor chip surface was regenerated by injection of 3-[(3-cholamidopropyl)dimethylammonio]-1-propanesulfonate (CHAPS) at a flow rate of 100 μl/min for 24 seconds.
The binding kinetics of the resulting VCAM-targeting peptides (i.e., TCP1 and TCP2) on perfluorocarbon nanoparticles were examined using Biacore X 100. PBS (Ca^2+ and Mg^2+ free) was used as the running buffer. Nanoparticles were immobilized on Biacore sensor chip L1 by injecting nanoparticles at a flow rate of 1 μl/min for 30 minutes, followed by a running buffer wash at a flow rate of 100 μl/min for 50 seconds. Targeting peptide prepared at selected concentrations in running buffer was sequentially injected at a flow rate of 30 μl/min for 1 minute. At the end of each experiment, the sensor chip surface was regenerated by injection of 3-[(3-cholamidopropyl)dimethylammonio]-1-propanesulfonate (CHAPS) at a flow rate of 100 μl/min for 24 seconds. FIG. 8 presents selected sensorgrams at several different concentrations of the two VCAM-targeting peptides. The dissociation constant of TCP1 and TCP2 were 0.13 μM and 0.04 μM, respectively.

[2] = Dynamic light scattering size and zeta potential of peptide-loaded PFOB/PFC nanoparticles; format: physicochemical; settings: for zeta potential: PFOB nanoparticles after incorporating the peptide (plain nanoparticles −17.62 mV); for average hydrodynamic diameter: PFOB nanoparticles with versus without inserted peptide
Method: (§2) The size distributions of the nanoparticles with or without the linker peptide were analyzed by dynamic light scattering (Brookhaven Instruments Corp., Holtsville, N.Y.). Zeta potential (ζ) values were determined with a Brookhaven Instruments PALS Zeta Potential Analyzer (Brookhaven Instruments Corp., Holtsville, N.Y.). Data were acquired in the phase-analysis light scattering (PALS) mode following solution equilibration at 25° C. […] This change further confirms the insertion of the linker peptide 1 into the PFOB nanoparticles. Furthermore, the structural integrity of linker peptide 1 inserted PFOB nanoparticles was confirmed by transmission electron microscopy.
The size distributions of the nanoparticles with or without cargo incorporated were analyzed by dynamic light scattering (Brookhaven Instruments Corp., Holtsville, N.Y.). The size distribution was plotted by particle number. Zeta potential (ζ) values were determined with a Brookhaven Instruments PALS Zeta Potential Analyzer (Brookhaven Instruments Corp., Holtsville, N.Y.). Data were acquired in the phase-analysis light scattering (PALS) mode following solution equilibration at 25° C.

[3] = tested on: 2F2B mouse endothelial cells; assay: XTT cell viability assay (cytotoxicity of peptides); format: cell-based; settings: 2F2B cells; for IC50: 3 hours of treatment at 37° C., XTT
Method: For each peptide, cytotoxicity was assessed in 2F2B mouse endothelial cells by the XTT cell viability assay (Biotium, Hayward, Calif.). Cells were seeded in 96-well plates at 10,000 cells/well 24 hours before treatment with melittin and mutated melittins at selected concentrations. After 3 hours of treatment at 37° C., 25 μl of activated XTT solution was added to each well and incubated at 37° C. for 5 hours. After 5 hours of incubation, plates were gently shaken to achieve even dye distribution. The absorbances of the samples were measured by a microplate reader (Biorad, Model 550, Hercules, Calif.) at a wavelength of 450 nm. Background was subtracted and the results were normalized to untreated control cells.

[4] = Surface plasmon resonance (Biacore X 100) binding of peptides on immobilized oil-based nanoparticles; settings: sensor chip L1, read-out: dissociation constant
Method: as §1

VCAM-1 = target: T1, VCAM-1 (Mus musculus, UniProt P29533); assay: Specific binding of VCAM targeted nanoparticles by confocal microscopy; format: cell-based; settings: Alexa Fluor 488 labeled PFOB nanoparticles, TNF-α stimulated 2F2B cells, 1 hour
T1 construct: endogenous in cells; host or cells: 2F2B endothelial cells, TNF-α stimulated
T1 sequence (P29533 25-739): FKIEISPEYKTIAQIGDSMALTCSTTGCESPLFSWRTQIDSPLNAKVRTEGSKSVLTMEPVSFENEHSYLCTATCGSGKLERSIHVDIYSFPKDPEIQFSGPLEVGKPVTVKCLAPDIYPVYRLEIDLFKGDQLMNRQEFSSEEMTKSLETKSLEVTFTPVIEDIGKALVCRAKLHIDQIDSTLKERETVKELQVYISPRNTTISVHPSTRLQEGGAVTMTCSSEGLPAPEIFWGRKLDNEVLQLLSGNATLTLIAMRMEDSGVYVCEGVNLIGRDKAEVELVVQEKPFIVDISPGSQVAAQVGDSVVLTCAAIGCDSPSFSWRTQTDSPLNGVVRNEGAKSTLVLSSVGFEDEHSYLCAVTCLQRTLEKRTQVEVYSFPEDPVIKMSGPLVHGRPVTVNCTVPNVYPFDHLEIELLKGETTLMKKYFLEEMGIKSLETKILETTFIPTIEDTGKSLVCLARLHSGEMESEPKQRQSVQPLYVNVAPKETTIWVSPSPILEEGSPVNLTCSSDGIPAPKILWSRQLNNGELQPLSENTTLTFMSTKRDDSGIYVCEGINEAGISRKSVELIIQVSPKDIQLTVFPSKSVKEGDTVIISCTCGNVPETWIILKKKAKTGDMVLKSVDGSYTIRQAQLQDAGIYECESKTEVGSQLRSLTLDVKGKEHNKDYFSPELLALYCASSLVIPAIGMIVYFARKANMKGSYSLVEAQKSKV
Method: The specific binding of VCAM targeted nanoparticles was evaluated by confocal microscopy in 2F2B cells, which express VCAM-1 on the cell surface after TNF-α stimulation. Alexa Fluor 488 labeled PFOB nanoparticles comprising the VCAM-targeting peptide (TCP1 or TCP2) or nanoparticles themselves were incubated with TNF-α stimulated 2F2B cells in Delta T Culture dish at 37° C. for 1 hour, followed by five PBS washes. Cells were then fixed by incubation in 1 ml of 4% paraformaldehyde at 37° C. for 5 minutes. After fixation, the cells were washed with PBS for 5 times and the cells were visualized using a confocal microscope (Zeiss Meta 510, Thornwood, N.Y.) with standard filter sets. Concomitant differential interference contrast (DIC) imaging was used to determine the location of nanoparticles in the cells.

[5] = Dissociation of loaded peptide from PFOB nanoparticles (tryptophan fluorescence of supernatant); format: physicochemical; settings: stored at 4° C., up to 70 hours after loading
Method: The dissociation of the peptide from linker peptide 1-loaded PFOB nanoparticles is depicted in FIG. 4. After being loaded with the linker peptide 1, the loaded PFOB nanoparticles were stored at 4° C. for 30 minutes, 1 hour, 2 hours, 4 hours, 22 hours, 46 hours, and 70 hours. The loaded nanoparticles were centrifuged at 100 g for 10 minutes, and the dissociated linker peptide 1 was measured by using tryptophan fluorescence after excitation at 280 nm in a fluorescent spectrofluorometer (Varian Inc, Palo Alto, Calif.).
FIG. 9 presents the dissociation of TCP1 or TCP2 from loaded PFOB nanoparticles as a function of time after loading. After loaded with TCP1 or TCP2, the PFOB nanoparticles were stored at 4° C. for 30 minutes, 1 hour, 2 hours, 4 hours, 22 hours, 46 hours, and 70 hours. The stored nanoparticles were then centrifuged at 100 g for 10 minutes and dissociated TCP1 or TCP2 was measured using tryptophan fluorescence after excitation at 280 nm in a fluorescent spectrofluorometer (Varian Inc, Palo Alto, Calif.).

[6] = Dynamic light scattering size and zeta potential of peptide-loaded liposomes; format: physicochemical
Method: as §2
The interactions between linker peptide 1 and liposomes are depicted in FIG. 6. […] This change further confirms that the linker peptide 1 inserted into the liposomes.

[7] = VCAM-targeting peptides on perfluorocarbon nanoparticles
[8] = on perfluorocarbon nanoparticles, sensor chip L1

Compound: VHPKQHRggVLTTGLPALISWIKR [TCP2]
- Kd [1, 7]: 40 nM
- zeta potential [2]: 12.43 mV
- average hydrodynamic diameter [2]: not affected

Compound: CC[C@H](C)[C@H](NC(=O)CNC(C)=O)C(=O)NCC(=O)N[C@@H](C)C(=O)N[C@H](C(=O)N[C@@H](CC(C)C)C(=O)N[C@@H](CCCCN)C(=O)N[C@H](C(=O)N[C@@H](CC(C)C)C(=O)N[C@H](C(=O)N[C@H](C(=O)NCC(=O)N[C@@H](CC(C)C)C(=O)N1CCC[C@H]1C(=O)N[C@@H](C)C(=O)N[C@@H](CC(C)C)C(=O)N[C@H](C(=O)N[C@@H](CO)C(=O)N[C@@H](Cc1c[nH]c2ccccc12)C(=O)N[C@H](C(=O)N[C@@H](CCCCN)C(=O)N[C@@H](CCCNC(=N)N)C(N)=O)[C@@H](C)CC)[C@@H](C)CC)[C@@H](C)O)[C@@H](C)O)C(C)C)C(C)C [Peptide P5]
- IC50 [3]: 6410 ± 640 nM

Compound: CC[C@H](C)[C@H](NC(=O)CNC(C)=O)C(=O)NCC(=O)N[C@@H](C)C(=O)N[C@H](C(=O)N[C@@H](CC(C)C)C(=O)N[C@@H](CCCCN)C(=O)N[C@H](C(=O)N[C@@H](CC(C)C)C(=O)N[C@H](C(=O)N[C@H](C(=O)NCC(=O)N[C@@H](CC(C)C)C(=O)N[C@@H](C)C(=O)N[C@@H](C)C(=O)N[C@@H](CC(C)C)C(=O)N[C@H](C(=O)N[C@@H](CO)C(=O)N[C@@H](Cc1c[nH]c2ccccc12)C(=O)N[C@H](C(=O)N[C@@H](CCCCN)C(=O)N[C@@H](CCCNC(=N)N)C(=O)N[C@@H](CCCCN)C(=O)N[C@@H](CCCNC(=N)N)C(=O)N[C@@H](CCC(N)=O)C(=O)N[C@@H](CCC(N)=O)C(N)=O)[C@@H](C)CC)[C@@H](C)CC)[C@@H](C)O)[C@@H](C)O)C(C)C)C(C)C [Peptide P2]
- cytotoxicity among the modified peptides (FIG. 2) [3]: least cytotoxicity
- IC50 [3]: 26600 ± 560 nM
- Kd [1, 8]: 5.48 nM
- Kd [4]: 0.64 nM

Compound: CC[C@H](C)[C@H](NC(=O)CNC(C)=O)C(=O)NCC(=O)N[C@@H](C)C(=O)N[C@@H](Cc1c[nH]c2ccccc12)C(=O)N[C@@H](CC(C)C)C(=O)N[C@@H](CCCCN)C(=O)N[C@H](C(=O)N[C@@H](CC(C)C)C(=O)N[C@H](C(=O)N[C@H](C(=O)NCC(=O)N[C@@H](CC(C)C)C(=O)N1CCC[C@H]1C(=O)N[C@@H](C)C(=O)N[C@@H](CC(C)C)C(=O)N[C@H](C(=O)N[C@@H](CO)C(=O)N[C@@H](Cc1c[nH]c2ccccc12)C(=O)N[C@H](C(=O)N[C@@H](CCCCN)C(=O)N[C@@H](CCCNC(=N)N)C(=O)N[C@@H](CCCCN)C(=O)N[C@@H](CCCNC(=N)N)C(=O)N[C@@H](CCC(N)=O)C(=O)N[C@@H](CCC(N)=O)C(N)=O)[C@@H](C)CC)[C@@H](C)CC)[C@@H](C)O)[C@@H](C)O)C(C)C [Peptide P1]
- IC50 [3]: 750 ± 40 nM

Compound: VLTTGLPALISWIKRggVHPKQHR [TCP1]
- Kd [1, 7]: 130 nM
- zeta potential [2]: 13.47 mV
- average hydrodynamic diameter [2]: not affected
- binding to cellular VCAM-1 (fluorescent signal) (VCAM-1): better binding

Compound: CC[C@H](C)[C@H](NC(=O)[C@H](CC(C)C)NC(=O)[C@H](C)NC(=O)[C@@H]1CCCN1C(=O)[C@H](CC(C)C)NC(=O)CNC(=O)[C@@H](NC(=O)[C@@H](NC(=O)[C@H](CC(C)C)NC(=O)[C@@H](NC(=O)[C@H](CCCCN)NC(=O)[C@H](CC(C)C)NC(=O)[C@@H](NC(C)=O)C(C)C)C(C)C)[C@@H](C)O)[C@@H](C)O)C(=O)N[C@@H](CO)C(=O)N[C@@H](Cc1c[nH]c2ccccc12)C(=O)N[C@H](C(=O)N[C@@H](CCCCN)C(=O)N[C@@H](CCCNC(=N)N)C(=O)N[C@@H](CCCCN)C(=O)N[C@@H](CCCNC(=N)N)C(=O)N[C@@H](CCC(N)=O)C(=O)N[C@@H](CCC(N)=O)C(N)=O)[C@@H](C)CC [Peptide P3]
- IC50 [3]: 14400 ± 920 nM

Compound: CC[C@H](C)[C@H](NC(=O)[C@H](CC(C)C)NC(=O)[C@H](C)NC(=O)[C@@H]1CCCN1C(=O)[C@H](CC(C)C)NC(=O)CNC(=O)[C@@H](NC(=O)[C@@H](NC(=O)[C@H](CC(C)C)NC(=O)[C@@H](NC(C)=O)C(C)C)[C@@H](C)O)[C@@H](C)O)C(=O)N[C@@H](CO)C(=O)N[C@@H](Cc1c[nH]c2ccccc12)C(=O)N[C@H](C(=O)N[C@@H](CCCCN)C(=O)N[C@@H](CCCNC(=N)N)C(=O)N[C@@H](CCCCN)C(=O)N[C@@H](CCCNC(=N)N)C(=O)N[C@@H](CCC(N)=O)C(=O)N[C@@H](CCC(N)=O)C(N)=O)[C@@H](C)CC [Peptide P4, VLTTGLPALISWIKRKRQQ]
- cytotoxicity among the modified peptides (FIG. 2) [3]: least cytotoxicity
- IC50 [3]: 114000 nM and 115000 nM
- decrease in cytotoxicity compared to MMLT ([3]; ratio of cytotoxicity index (IC50)): ~50 fold
- cell toxicity ([3]; up to a concentration of 90 μM): essentially no cell toxicity
- Kd [1, 8]: 225 nM
- Kd [4]: 22.9 nM
- loaded peptide dissociated from the PFOB nanoparticles [5]: < 10%
- zeta potential [2]: +23.33 mV
- average hydrodynamic diameter [2]: not affected
- zeta potential ([6]; liposomes after incorporating the peptide (plain liposomes −36.73 mV)): −29.843 mV
- average hydrodynamic diameter ([6]; liposomes with versus without inserted peptide): not affected
